Test results as given in publication PMC5513091, “A novel Alzheimer’s disease drug candidate targeting inflammation and fatty acid metabolism” (Alzheimer's Research & Therapy, 2017).

Experiments:
rat hippocampal neurons = assay: Aβ toxicity (extracellular); type: cell-based; conditions: Hippocampal neuron, read-out: Half-maximal effective concentration, Aβ toxicity (extracellular)
[1] = tested on: senescence-accelerated mouse-prone 8 (SAMP8) mice; design: method as in PMID 26564964; conditions: model of sporadic AD; cited from earlier work
primary cortical neurons = assay: Oxytosis; type: cell-based; conditions: Primary cortical neuron; read-out: Half-maximal effective concentration, Oxytosis
Procedure: (§1) The various phenotypic screening assays were conducted as previously described. Briefly, HT-22, primary cortical neurons, or MC65 was plated and exposed to the different environmental stresses. Cells were treated with varying concentrations of CAD-31, and half-maximal effective concentration (EC50) was determined on the basis of cell viability.
(§2) • An assay that mimics the dramatic loss of neurotrophic support in the old brain is the trophic factor withdrawal assay. Primary embryonic day 18 cortical cells are plated at low density in serum-free medium. At low density, the cells die within 2 days; they can be rescued by combinations of neurotrophic growth factors, but not by one alone ([19] and unpublished data). […] BDNF is a molecule that is also involved in promoting memory and neurogenesis and is reduced in the brain with age and in AD, as well as in other neurological disorders. BDNF has long been considered a drug target for AD [23]. […] A reduction in GSH is a common denominator of old age and essentially all chronic central nervous system (CNS) diseases. J147 and CAD-31 both effectively reduce oxidative stress, with EC50 of 6 nM and 20 nM, respectively. • CAD-31 also prevents loss of energy metabolism that leads to neuron cell death in an in vitro ischemia model. […]

APPswe/PS1∆E9 mice = tested on: APPswe/PS1∆E9 mice; design: method as in PMID 22194796, PMID 23673233, PMID 27149904; conditions: administered to 3-month-old APPswe/PS1∆E9 mice for 7 months; cited from earlier work
normal rodents = tested on: normal rodents; design: method as in PMID 22194796, PMID 23673233, PMID 27149904; conditions: cited from earlier work
HT22 = assay: In vitro ischemia; type: cell-based; conditions: Mus musculus, HT-22, read-out: Half-maximal effective concentration, In vitro ischemia
Procedure: as §1, §2

MC65 = assay: Aβ toxicity (intracellular); type: cell-based, human; conditions: Homo sapiens, MC65, MC65; read-out: Half-maximal effective concentration, Aβ toxicity (intracellular)
Procedure: as §1
• An assay that mimics the dramatic loss of neurotrophic support in the old brain is the trophic factor withdrawal assay. Primary embryonic day 18 cortical cells are plated at low density in serum-free medium. At low density, the cells die within 2 days; they can be rescued by combinations of neurotrophic growth factors, but not by one alone ([19] and unpublished data). […] BDNF is a molecule that is also involved in promoting memory and neurogenesis and is reduced in the brain with age and in AD, as well as in other neurological disorders. BDNF has long been considered a drug target for AD [23]. […] A reduction in GSH is a common denominator of old age and essentially all chronic central nervous system (CNS) diseases. J147 and CAD-31 both effectively reduce oxidative stress, with EC50 of 6 nM and 20 nM, respectively. • CAD-31 also prevents loss of energy metabolism that leads to neuron cell death in an in vitro ischemia model. […] Intracellular Aβ toxicity was assayed in the human neuron cell line MC65 that conditionally expresses the C99 fragment of the amyloid precursor protein. When the cells are induced to make Aβ, the cells die within 4 days. Both J147 and CAD-31 block this toxicity at around 10 nM. Therefore, CAD-31 has a repertoire of neuroprotective activities similar but not identical to that of its parent compound, J147.

[2] = tested on: HT22 cells expressing the brain-derived neurotrophic factor (BDNF) receptor transmembrane receptor kinase B; assay: BDNF-like activity (rescue from serum starvation); type: cell-based; conditions: Mus musculus, HT-22, read-out: Half-maximal effective concentration, BDNF-like activity
Procedure: as §1, §2

[3] = tested on: very old transgenic AD mice; design: method as in PMID 23673233; conditions: fed to very old transgenic AD mice; cited from earlier work
[4] = tested on: Primary embryonic day 18 cortical cells; assay: Trophic factor withdrawal assay; type: cell-based; conditions: Cortical neurone; Cortical neuron; cell viability; read-out: Half-maximal effective concentration, Trophic factor withdrawal
Procedure: as §1, §2

Aβ1–42 = Aβ1–42 (Homo sapiens, UniProt P05067); assay: Thioflavin S Aβ1–42 aggregation assay; type: biochemical; conditions: data not shown
Aβ1–42, sequence (P05067 672-713 limits assumed): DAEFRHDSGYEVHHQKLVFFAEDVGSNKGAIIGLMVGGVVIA

[5] = tested on: APPswe/PS1∆E9-transgenic mice; design: method as in PMID 23785163; conditions: fed to APPswe/PS1∆E9-transgenic mice, preventive paradigm; cited from earlier work

Row | EC50 (primary cortical neurons) [µM] | EC50 (HT22) [µM] | EC50 [2] [µM] | SMILES | EC50 (rat hippocampal neurons) [µM] | loss of synaptic proteins and cognitive decline [1] | loss of synaptic proteins and cognitive decline (APPswe/PS1∆E9 mice) | memory (normal rodents) | EC50 (MC65) [µM] | memory deficits and AD pathology [3] | EC50 [4] [µM] | binding to and direct inhibition of Aβ1–42 aggregation (Aβ1–42) | accumulation of ubiquitinated, aggregated proteins in the brain [5]
1 | 0.006 | 0.014 | 0.074 | COc1cccc(/C=N/N(C(=O)C(F)(F)F)c2ccc(C)cc2C)c1 [J147, reference compound] | 0.015 | prevents the loss of synaptic proteins and cognitive decline | prevents the loss of synaptic proteins and cognitive decline | facilitates memory in normal rodents | ~0.01 | reverses memory deficits and some AD pathology | 0.035 | Neither J147 nor CAD-31 binds to and directly inhibits Aβ1–42 aggregation | 
2 |  |  |  | COc1cc(/C=C/c2cc(/C=C/c3ccc(O)c(OC)c3)n(-c3ccccc3)n2)ccc1O [CNB-001] |  |  |  |  |  |  |  |  | reduces the accumulation of ubiquitinated, aggregated proteins in the brain
